Where two headings read alike, the source gives them in different places. Marks after values point to notes of the source that are not given here. Starred links: 1 amine or outer side, 2 acyl side, 3 side chain; linkers in the order of their positions; H or OH if unused. Non-standard residues stand in square brackets, D forms with d. Groups on a side chain read outwards from the residue. *: point of attachment. C20 diacid = O=C(O)CCCCCCCCCCCCCCCCCCC(=O)*; C18 diacid = O=C(O)CCCCCCCCCCCCCCCCC(=O)*; αMePhe(2-F) = C[C@](N)(Cc1ccccc1F)C(=O)O; γGlu = O=C(O)[C@H](CCC(=O)[*:2])N[*:1]; αMe4Pal = C[C@](N)(Cc1ccncc1)C(=O)O; αMeY = C[C@](N)(Cc1ccc(O)cc1)C(=O)O; 4Pal = N[C@@H](Cc1ccncc1)C(=O)O; αMeL = CC(C)C[C@](C)(N)C(=O)O; αMeS = C[C@](N)(CO)C(=O)O; Orn = NCCC[C@H](N)C(=O)O; AEEA = NCCOCCOCC(=O)O; Aib = CC(C)(N)C(=O)O
Key:
human GLP1-R = human GLP1-R (Homo sapiens, UniProt P43220); assay: GLP1-R internalization assay in HEK293 cells; assay type: cell-based
Chain of human GLP1-R (P43220 24-463): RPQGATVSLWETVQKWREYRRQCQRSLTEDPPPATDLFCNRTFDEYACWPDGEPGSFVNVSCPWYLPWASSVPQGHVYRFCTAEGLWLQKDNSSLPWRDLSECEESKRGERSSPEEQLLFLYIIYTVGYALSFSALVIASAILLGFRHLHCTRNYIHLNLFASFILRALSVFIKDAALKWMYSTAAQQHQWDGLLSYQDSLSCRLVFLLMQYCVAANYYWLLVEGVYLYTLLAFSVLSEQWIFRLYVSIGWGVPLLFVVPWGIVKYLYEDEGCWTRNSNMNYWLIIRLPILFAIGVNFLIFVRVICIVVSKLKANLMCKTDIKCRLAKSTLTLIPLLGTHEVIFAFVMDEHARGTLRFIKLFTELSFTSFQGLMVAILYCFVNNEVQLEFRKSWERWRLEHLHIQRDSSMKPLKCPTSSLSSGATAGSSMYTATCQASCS

hGLP-1R [1] = molecular target: T1, hGLP-1R (Homo sapiens, UniProt P43220); assay: Functional cAMP activation in the presence of 0.1% casein (no HSA); assay type: cell-based; details: read-out: Relative cAMP EC50, hGLP-1R;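 further: intracellular cAMP rise after 30 min at 37 °C read by HTRF, normalized between buffer only (0%) and maximal control ligand (100%), four-parameter variable-slope fit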
Target sequence in this assay (P43220 24-463): as above

[2] = Body weight in diet-induced obese C57BL/6 mice; assay type: in vivo; details: 10 nmol/kg SC Q3D, 14 days, percent of starting weight, DIO mice, mean ± SEM n=5
Procedure: To investigate the effect of the polypeptides as described herein on weight loss, exemplary polypeptides are dosed to C57BL/6 diet-induced obese (DIO) mice. Specifically, DIO male C57BL/6 mice (Taconic, Germantown, NY) maintained on a calorie-rich diet are used in the following studies. Mice are individually housed in a temperature-controlled (24° C.) facility with 12-hour light/dark cycle (lights on 22:00) and free access to food (TD95217) and water. After a minimum of 2 weeks acclimation to the facility, the mice are randomized according to their body weight, so each experimental group of animals would have similar starting body weight. The body weights range from 41 to 50 g. All groups contain 5 mice. […] Treatments are administered by subcutaneous (SC) injection (10 mL/kg) to ad libitum fed DIO mice 30 to 90 minutes prior to the onset of the dark cycle either once daily (QD) or once every 3 days (Q3D) for 9-16 days. Body weight and food intake are measured daily throughout the study. Body weight is presented as percent of the starting weight. […] Data are presented as mean±SEM of 5 animals per group in Table 7 below. Statistical analysis is performed using repeated measures ANOVA, followed by Dunnett's method comparison test.

hGcgR = hGcgR (Homo sapiens, UniProt P47871); assay: Functional cAMP activation in the presence of 0.1% casein (no HSA); assay type: cell-based; details: read-out: Relative cAMP EC50, hGcgR;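 further: intracellular cAMP rise after 30 min at 37 °C, read by HTRF against a cAMP standard curve, scaled from buffer only (0%) to maximal control ligand response (100%)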
Chain of hGcgR (P47871 26-477): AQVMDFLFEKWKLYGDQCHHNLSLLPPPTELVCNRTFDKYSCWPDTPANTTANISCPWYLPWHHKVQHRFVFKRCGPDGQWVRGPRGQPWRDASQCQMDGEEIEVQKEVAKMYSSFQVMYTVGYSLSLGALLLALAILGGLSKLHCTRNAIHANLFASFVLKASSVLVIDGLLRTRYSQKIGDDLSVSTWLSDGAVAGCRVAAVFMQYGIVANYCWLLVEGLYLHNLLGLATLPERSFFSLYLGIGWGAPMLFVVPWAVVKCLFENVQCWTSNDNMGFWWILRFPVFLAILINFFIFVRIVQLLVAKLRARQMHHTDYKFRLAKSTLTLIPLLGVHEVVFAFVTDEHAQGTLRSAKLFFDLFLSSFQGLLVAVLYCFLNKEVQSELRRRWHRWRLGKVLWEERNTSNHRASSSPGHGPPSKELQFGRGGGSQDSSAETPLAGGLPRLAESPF

hGLP-1R [3] = molecular target: T1, hGLP-1R; assay: GLP-1R CHO cell β-arrestin recruitment assay; assay type: cell-based; parameters: host or cells: CHO-K1 (PathHunter, assay-ready frozen cells); details: for EC50: CHO-K1 PathHunter, β-arrestin-2, 0.1% casein, read-out: hGLP1R β-arrestin Rel EC50; for % Stimulation Max: normalized to GLP-1(7-36) as maximum control;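 on all read-outs here: luminescence read after 90 min peptide exposure at 37 °C and a further 60 min with detection reagent at room temperature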
Target sequence in this assay (P43220 24-463): as the sequence (P43220 24-463) above
Target sequence in this assay (P32121 whole entry partner): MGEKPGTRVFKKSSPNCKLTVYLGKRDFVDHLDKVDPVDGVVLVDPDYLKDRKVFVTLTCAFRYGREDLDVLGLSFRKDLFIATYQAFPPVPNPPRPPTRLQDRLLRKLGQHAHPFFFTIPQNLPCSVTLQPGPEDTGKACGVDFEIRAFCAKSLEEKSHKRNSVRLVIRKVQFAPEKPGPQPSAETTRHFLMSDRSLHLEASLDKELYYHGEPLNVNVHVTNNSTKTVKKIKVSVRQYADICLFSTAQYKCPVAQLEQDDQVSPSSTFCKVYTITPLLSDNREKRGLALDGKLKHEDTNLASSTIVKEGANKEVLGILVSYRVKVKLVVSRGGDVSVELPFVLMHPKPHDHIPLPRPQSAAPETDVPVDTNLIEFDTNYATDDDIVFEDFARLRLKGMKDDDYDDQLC

hGIPR [4] = molecular target: T2, hGIPR (Homo sapiens, UniProt P48546); assay: Functional cAMP activity in the presence of 1% HSA; assay type: cell-based; details: read-out: cAMP Rel EC50, hGIPR
T2 sequence (P48546 22-466): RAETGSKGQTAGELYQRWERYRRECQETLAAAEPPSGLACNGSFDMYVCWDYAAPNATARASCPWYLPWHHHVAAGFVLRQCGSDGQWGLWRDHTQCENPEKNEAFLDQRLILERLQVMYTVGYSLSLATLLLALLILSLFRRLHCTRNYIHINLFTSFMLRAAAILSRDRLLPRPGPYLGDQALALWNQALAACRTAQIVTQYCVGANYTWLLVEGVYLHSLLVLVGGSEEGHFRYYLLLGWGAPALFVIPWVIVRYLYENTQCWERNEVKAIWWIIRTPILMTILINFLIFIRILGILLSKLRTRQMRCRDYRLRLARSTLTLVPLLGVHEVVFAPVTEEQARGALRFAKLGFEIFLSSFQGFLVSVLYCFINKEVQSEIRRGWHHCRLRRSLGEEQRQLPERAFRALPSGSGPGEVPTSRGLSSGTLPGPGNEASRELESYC

human GcgR = human GcgR (Homo sapiens, UniProt P47871); assay: Functional cAMP activity in the presence of 1% HSA; assay type: cell-based; details: read-out: cAMP Rel EC50, hGcgR
Chain of human GcgR (P47871 26-477): as the sequence (P47871 26-477) above

hGLP-1R [5] = molecular target: T1, hGLP-1R; assay: Functional cAMP activity in the presence of 1% HSA; assay type: cell-based; details: read-out: cAMP Rel EC50, hGLP-1R
Target sequence in this assay (P43220 24-463): as the sequence (P43220 24-463) above

hGIPR [6] = molecular target: T2, hGIPR; assay: Functional cAMP activation in the presence of 0.1% casein (no HSA); assay type: cell-based; details: read-out: Relative cAMP EC50, hGIPR;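 further: intracellular cAMP rise after 30 min at 37 °C read by HTRF against a standard curve, scaled between buffer alone (0%) and top control ligand concentration (100%), four-parameter fit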
[7] = Pepsin stability assay in simulated gastric fluid; assay type: in vitro ADME; details: pH 1.2, % Intact (SD)
Procedure: A pepsin stability assay is utilized to determine the relative stability of Example polypeptides in a simulated gastric proteolytic environment. […] The relative amount of intact peptide is quantified by mass spectrometry (MS). […] The examples were dissolved in 50 mM Tris buffer pH 8.0 at a concentration of 10 mg/mL as a stock solution. Pepsin A was reconstituted in SGF at 10 mg/mL. […] The example peptide and pepsin solutions were then incubated at 37° C. in a shaking incubator set at 100 rpm. Samples (25 μL) were withdrawn at different time intervals and quenched with 100 mM ammonium bicarbonate pH 9 (50 μL) to stop proteolytic activity. All samples were centrifuged, and the supernatants were analyzed by LC/MS to determine the remaining intact peptide.

[8] = in the presence of 0.1% casein (no HSA), geometric mean

Substance	EC50 (human GLP1-R; HEK293 cells expressing SNAP-GLP-1R, read-out: GLP1R Internalization EC50) [nM]	Internalization % TOP (human GLP1-R; normalized to maximum concentration of GLP-1 (100%)) [%]	EC50 (hGLP-1R [1]; [8]) [nM]	EC50 (hGcgR; [8]) [nM]	EC50 (hGLP-1R [3]) [nM]	% Stimulation Max (hGLP-1R [3]) [%]	EC50 (hGIPR [4]) [nM]	EC50 (human GcgR) [nM]	EC50 (hGLP-1R [5]) [nM]	EC50 (hGIPR [6]; [8]) [nM]	Body weight (%) [2]	EC50 (hGLP-1R [1]) [nM]	EC50 (hGcgR) [nM]	remaining at 0.25 h, 0.4 mg/mL [7] [%]	remaining at 0.5 h, 0.4 mg/mL [7] [%]	remaining at 1 h, 0.4 mg/mL [7] [%]	EC50 (hGIPR [6]) [nM]
H-Y[Aib]QGTFTSDFSK[αMeL]LDKK([AEEA-γGlu-C20 diacid])AQ[Aib]AFIEYLLAGGPSSGEPPPSEE-NH2 [Example 4]	49.1	67.8	1.66	3.2	23.2	15.8	62.3	1580	869	0.192	83.00 +/− 0.88**** %						
H-Y[Aib]QGT[αMePhe(2-F)]TSD[4Pal][αMeS]I[αMeL]LD[Orn]K([AEEA-γGlu-C18 diacid])AQ[αMe4Pal]EFI[dE][αMeY]LIEGGPSSGAPPPSGTGE-NH2 [Example 714]							0.754	197	33.2			0.289	1.76	99.2	102	96.9	0.00764
H-Y[Aib]QGT[αMePhe(2-F)]TSD[4Pal][αMeS]I[αMeL]LD[Orn]K([γGlu-γGlu-C18 diacid])AQ[αMe4Pal]EFI[dE][αMeY]LIEGGPSSGAPPPSGTGE-NH2 [Example 718]							0.531	144	23.2			0.214	1.2	103	101		0.00706
H-Y[Aib]QGTFTSD[4Pal]SQ[αMeL]LD[Orn]K([dE-γGlu-C18 diacid])AQ[αMe4Pal]EFI[dE][αMeY]LIAGGPSSGAPPPSGSEEE-NH2 [Example 1235]														1.4	0	0	

Continued, in another order:

EC50 (human GLP1-R; HEK293 cells expressing SNAP-GLP-1R, read-out: GLP1R Internalization EC50) [nM]	Internalization % TOP (human GLP1-R; normalized to maximum concentration of GLP-1 (100%)) [%]	EC50 (hGLP-1R [1]; [8]) [nM]	EC50 (hGcgR; [8]) [nM]	EC50 (hGLP-1R [3]) [nM]	% Stimulation Max (hGLP-1R [3]) [%]	EC50 (hGIPR [4]) [nM]	EC50 (human GcgR) [nM]	EC50 (hGLP-1R [5]) [nM]	EC50 (hGIPR [6]; [8]) [nM]	Substance	Body weight (%) [2]	EC50 (hGLP-1R [1]) [nM]	EC50 (hGcgR) [nM]	remaining at 0.25 h, 0.4 mg/mL [7] [%]	remaining at 0.5 h, 0.4 mg/mL [7] [%]	remaining at 1 h, 0.4 mg/mL [7] [%]	EC50 (hGIPR [6]) [nM]
						1.15	207	34.3		H-Y[Aib]QGT[αMePhe(2-F)]TSD[4Pal][αMeS]I[αMeL]LD[Orn]K([AEEA-γGlu-C18 diacid])AQ[αMe4Pal]EFI[dE][αMeY]LVEGGPSSGEPPPSGS-NH2 [Example 733]		0.293	1.6	109	107	110	0.00894
		0.508	4.05	3.76	29.7	85.1	1560	140	0.398	H-Y[Aib]QGTFTSDYSK[αMeL]LDKK([AEEA-γGlu-C20 diacid])AQQAFVQWLIEGGPSSGEPPPSEG-NH2 [Example 315]	79.76 +/− 1.72**** %						
						0.786	197	35.2		H-Y[Aib]QGT[αMePhe(2-F)]TSD[4Pal][αMeS]I[αMeL]LD[Orn]K([AEEA-γGlu-C18 diacid])AQ[αMe4Pal]EFI[dE][αMeY]LIEGGPSSGEPPPSGTGE-NH2 [Example 711]		0.355	1.29	95	91.6	91.9	0.00861
